Reference: patent publication US20160009752A1, “[…]-OXIMINO-AMINOALKYLETHERS AND PROCESS FOR PREPARATION THEREOF, USEFUL AS ANTIDIABETIC AND […] AGENTS” (COUNCIL OF SCIENTIFIC & INDUSTRIAL RESEARCH, priority 2013, published 2016)

How the values were obtained:
[1] = tested on: STZ-induced diabetic rats; test: Streptozotocin-induced diabetic rat model (STZ); assay type: in vivo; conditions: 100 mg/kg
Experimental: Male albino rats (Sprague Dawley Strain) of body weight 160±20 g were procured from the colony of CDRI Animal House. 4 to 5 animals were kept in one polypropylene cage and acclimatized for one week in the new environment. The animals were made diabetic by injecting streptozotocin (STZ) intraperitoneally to the overnight starved animals at a dose of 60 mg/kg prepared in 100 mM citrate buffer (pH 4.5). Fasting blood glucose level of each animal was measured after 48 hours post STZ injection by Glucostrips (Roche) using Glucometer (ACCU-CHEK II; Roche Diagnostics, USA) and animals showing blood glucose level above 280 mg/dl were considered as diabetic. The diabetic rats with fasting blood glucose values varying between 280-450 mg/dl were included in this study. Animals were divided into groups consisting of five animals in each. Group one was considered as a control group, where as the other groups were termed as experimental groups. Rats of experimental group were usually given 100 mg/kg body weight of the test samples unless stated otherwise and standard drug i.e. metformin, respectively. The test samples and standard drug i.e. metformin was always prepared in the vehicle 1% gum acacia. 30 min post administration of the test samples/vehicle/standard drug, blood glucose levels of the animals of all the groups were measured at 30, 60, 90, 120, 180, 240, 300 and 1440 min. Food (not water) was removed from the cages during the experimental period. A plot was drawn between time and blood glucose levels on x and y axis, respectively and the area under curve (AUC) between 0 to 300 min were calculated of each group. The percent decline in AUC of the experiment group compared to sham treated control group termed as % antihyperglycaemic activity. Statistical comparison between the groups was done by employing Student's ‘t’ test.

[2] = tested on: db/db mice; test: db/db mice: blood glucose, OGTT, serum lipid and insulin; assay type: in vivo; conditions: for decrease in plasma insulin levels / enhancement of HDL-cholesterol level / lowering of serum triglycerides level (TG) / lowering of total cholesterol (T-Chol) level: 15 days
Experimental: Male C57BL/KsJ-db/db mice (8 to 12 weeks old, 35-45 g body weight) were procured from National Animal Laboratory Centre (NALC) of Central Drug Research Institute (CDRI), Lucknow, India. Animals were housed in polypropylene cages, in controlled environment (temperature 25±2° C.; humidity 50-60%; light 300 lux at floor level with regular 12 h light-12 h dark cycle; noise level 50 decibel; ventilation 10-15 air changes per hour). They were provided with a standard laboratory diet (Dayal Industry, Barabanki, Lucknow) unless stated otherwise and had free access to water. The animals were allocated into groups of 5 animals in each. Prior to start of the test sample feeding, a vehicle training period was followed from day −3 to day 0 during which all the animals were given vehicle (1% gum acacia) at a dose volume of 10 ml/kg body weight. At day 0 the animals having blood glucose level between 180 to 300 mg/di were selected and divided into three groups containing 5 animals in each. One group was considered as control group while the other group one was treatment group. The treatment groups were given suspensions of 14b at 1.0 and 3.0 mg/kg body weight, dose, respectively. The control group was given an equal amount of vehicle. All the animals had free access to fresh water and normal diet. Random blood glucose of each mouse was checked daily at 11.00. […] Blood has been withdrawn from the retro-orbital plexus of mice eye for the estimation of lipid profile and insulin.
In type 2 diabetes, elevated blood glucose level due to defect in peripheral glucose disposal results in hyperglycaemia. To observe the improvement on hyperglycaemia 14b was orally gavaged for 15 consecutive days and after dosing blood glucose of control and treated group were measured.

[3] = Stability studies in rat plasma samples; assay type: in vitro ADME; conditions: freeze-thaw cycle, bench top, dry residue and long term conditions
Text: The plasma of the rat treated with compound 14b was then processed for the stability study. The compound is found to be stable during freeze-thaw cycle, on the bench top, dry residue and long term conditions after extraction from plasma.

[4] = Stability in simulated gastric and intestinal fluid; assay type: in vitro ADME

For C/C(=N\OCCN1CCCCC1)[C@H]1CC[C@H]2[C@@H]3CC=C4C[C@@H](O)CC[C@]4(C)[C@H]3CC[C@]12C [Compound 14b, 3β-Hydroxy-pregna-5-en-20-one-O-(2-piperidin-1-yl-ethyl)-oxime], the “Blood glucose level, 0 min post sucrose load” value [1] was 357.4 ± 17.9 mg/dL, the “Blood glucose level, 30 min post sucrose load” value [1] was 353.8 ± 6.3 mg/dL and the “Blood glucose level, 60 min post sucrose load” value [1] was 387.0 ± 20.8 mg/dL. For the same compound, the “Blood glucose level, 90 min post sucrose load” value [1] was 374.4 ± 23.1 mg/dL, the “Blood glucose level, 120 min post sucrose load” value [1] was 375.0 ± 20.2 mg/dL and the “Blood glucose level, 180 min post sucrose load” value [1] was 366.6 ± 16.7 mg/dL. The “Blood glucose level, 240 min post sucrose load” value [1] was 333.0 ± 11.7 mg/dL, the “Blood glucose level, 300 min post sucrose load” value [1] was 301.4 ± 12.1 mg/dL and the “Blood glucose level, 1440 min post sucrose load” value [1] was 408.0 ± 17.1 mg/dL. For the same compound, the “decrease in plasma insulin levels” value ([2]; 1.0 mg/kg oral) was 4.03%, the “enhancement of HDL-cholesterol level” value ([2]; 1.0 mg/kg oral) was 6.18% and the “lowering of serum triglycerides level (TG)” value ([2]; 1.0 mg/kg oral) was 13.8%. The “lowering of total cholesterol (T-Chol) level” value ([2]; 1.0 mg/kg oral) was 13.3%, the “decrease in plasma insulin levels” value ([2]; 3.0 mg/kg oral) was 8.06% and the “enhancement of HDL-cholesterol level” value ([2]; 3.0 mg/kg oral) was 13.6%. The “lowering of serum triglycerides level (TG)” value ([2]; 3.0 mg/kg oral) was 18.9%, the “lowering of total cholesterol (T-Chol) level” value ([2]; 3.0 mg/kg oral) was 16.7% and the “blood glucose levels vs vehicle treated group, in words” value ([2]; 1.0 and 3.0 mg/kg oral, 15 consecutive days, FIG. 8) was “decline in their blood glucose levels”. For the same compound, the “% Antihyperglycaemic activity (OGTT improvement)” value (“% Antihyperglycaemic activity” below) ([2]; day 10th, 1.0 mg/kg) was 10.3%, the “Blood glucose profile, 0 min post glucose load” value ([2]; day 10th, 1.0 mg/kg) was 211.6 ± 11.8 mg/dL and the “Blood glucose profile, 30 min post glucose load” value ([2]; day 10th, 1.0 mg/kg) was 559.8 ± 24.8 mg/dL. For the same compound, the “Blood glucose profile, 60 min post glucose load” value ([2]; day 10th, 1.0 mg/kg) was 568.0 ± 12.9 mg/dL, the “Blood glucose profile, 90 min post glucose load” value ([2]; day 10th, 1.0 mg/kg) was 502.8 ± 23.6 mg/dL and the “Blood glucose profile, 120 min post glucose load” value ([2]; day 10th, 1.0 mg/kg) was 437.8 ± 14.1 mg/dL. The “decline in fasting blood glucose level” value ([2]; day 10th, 1.0 mg/kg) was about 21.2%, the “% Antihyperglycaemic activity” value ([2]; day 10th, 3.0 mg/kg) was 15.1% and the “Blood glucose profile, 0 min post glucose load” value ([2]; day 10th, 3.0 mg/kg) was 190.2 ± 12.9 mg/dL. For the same compound, the “Blood glucose profile, 30 min post glucose load” value ([2]; day 10th, 3.0 mg/kg) was 542.2 ± 24.1 mg/dL, the “Blood glucose profile, 60 min post glucose load” value ([2]; day 10th, 3.0 mg/kg) was 523.2 ± 22.7 mg/dL and the “Blood glucose profile, 90 min post glucose load” value ([2]; day 10th, 3.0 mg/kg) was 482.0 ± 20.5 mg/dL. The “Blood glucose profile, 120 min post glucose load” value ([2]; day 10th, 3.0 mg/kg) was 414.0 ± 9.4 mg/dL, the “decline in fasting blood glucose level” value ([2]; day 10th, 3.0 mg/kg) was about 29.1% and the “% Antihyperglycaemic activity” value ([2]; day 15th, 1.0 mg/kg) was 16.9%. For the same compound, the “Blood glucose profile, 0 min post glucose load” value ([2]; day 15th, 1.0 mg/kg) was 183.6 ± 7.86 mg/dL, the “Blood glucose profile, 30 min post glucose load” value ([2]; day 15th, 1.0 mg/kg) was 499.2 ± 36.1 mg/dL and the “Blood glucose profile, 60 min post glucose load” value ([2]; day 15th, 1.0 mg/kg) was 560.6 ± 14.6 mg/dL. For the same compound, the “Blood glucose profile, 90 min post glucose load” value ([2]; day 15th, 1.0 mg/kg) was 468.8 ± 19.5 mg/dL, the “Blood glucose profile, 120 min post glucose load” value ([2]; day 15th, 1.0 mg/kg) was 383.8 ± 8.46 mg/dL and the “decline in fasting blood glucose level” value ([2]; day 15th, 1.0 mg/kg) was “around 25.5%”. For the same compound, the “% Antihyperglycaemic activity” value ([2]; day 15th, 3.0 mg/kg) was 24.5%, the “Blood glucose profile, 0 min post glucose load” value ([2]; day 15th, 3.0 mg/kg) was 160.2 ± 6.88 mg/dL and the “Blood glucose profile, 30 min post glucose load” value ([2]; day 15th, 3.0 mg/kg) was 458.8 ± 16.6 mg/dL. For the same compound, the “Blood glucose profile, 60 min post glucose load” value ([2]; day 15th, 3.0 mg/kg) was 513.2 ± 13.1 mg/dL, the “Blood glucose profile, 90 min post glucose load” value ([2]; day 15th, 3.0 mg/kg) was 420.0 ± 13.2 mg/dL and the “Blood glucose profile, 120 min post glucose load” value ([2]; day 15th, 3.0 mg/kg) was 348.0 ± 13.2 mg/dL. The “decline in fasting blood glucose level” value ([2]; day 15th, 3.0 mg/kg) was about 35.1%, the “stability after extraction from plasma” value [3] was “stable” and the “stability in simulated gastric fluid (SGF)” value ([4]; SGF) was “low stability”. For the same compound, the “stability in simulated intestinal fluid (SIF)” value ([4]; SIF) was “good stability”.
